Where two headings read alike, the source gives them in different places.
Columns and labels:
[1] = Pharmacokinetics of LUM001 after oral solution and capsule in dogs; assay type: in vivo, Beagle dogs; details: for Cmax / Tmax / AUC(0-t) / bioavailability: female, Beagle, dog, plasma; for Cmax / Tmax / AUC(0-t): po, 7.5 mg/kg; for AUC(0-t): read-out: AUC(0-24 h); for bioavailability: read-out: BA (bioavailability)
Experimental: Three fasted female Beagle dogs were administered LUM001 either as an oral solution at doses of 1 or 7.5 mg LUM001 free form/kg or in an oral capsule at a dose of 7.5 mg LUM001 free form/kg in a cross-over design. A dose of 7.5 mg LUM001 free form/kg was also administered as an oral solution to fed beagle dogs to evaluate the effect of food on plasma concentrations of LUM001.
Blood samples of approximately 3 mL was collected by venipuncture or indwelling catheter into chilled tubes containing heparin at the following timepoints: 0 (predose), 0.5, 1, 1.5, 2, 3, 5, 6, 8, 10, and 24 hours. The plasma samples were prepared by centrifugation of blood within 30 minutes after sample collection. All samples were stored at −20° C.±5° C. until analysis to study the relative exposures of LUM001 free form after capsule or oral solution dosing.

fecal bile acids = experiment: Fecal bile acid excretion, ascending multiple oral doses of LUM001 in healthy adults; assay type: in vivo, human
Experimental: (§1) This Phase 1 study was a randomized, double-blind, placebo-controlled study of ascending multiple oral doses of LUM001 in healthy, adult subjects. This study was conducted at a single center. There were 13 LUM001 dosing panels: 10, 20, 60, 100, and 20 mg every morning (qAM) (2) (i.e., the regimen was tested a second time in the study), 5 mg every evening (qPM), 0.5, 1, 2.5, 5, 2.5 (2), 5 (2), and 0.5 to 5 mg qAM dose titration. Most of the dosing panels included subjects treated with matching placebo. No subject participated in more than 1 dosing panel. Subjects were randomized into the study by dosing panel, and all subjects within a dosing panel received study medication at approximately the same time each day. Safety was reviewed for each panel before subsequent panels were initiated. A total of 167 subjects were treated for 28 days, 147 with LUM001 and 20 with placebo.
During the Pretreatment Screening Period (Days −31 through −4), subjects were seen on an outpatient basis to determine study eligibility based on enrollment criteria. On Day −3, eligible subjects were admitted to the research facility during the morning. Subjects were confined to the research facility from Days −3 to 30. During the entire period of confinement to the research facility, subjects received a study diet composed of 35% of caloric intake from fat, 15% from protein, and 50% from carbohydrates. The total daily caloric intake (based on the subject's weight) was fixed and divided into 3 equicaloric equal-fat-containing meals. The fixed fat composition and caloric content of the diet was designed to reduce inter- and intra-subject variability of serum total bile acids (SBA) and FBA, lipid parameters, and fat absorption parameters.
On Day 1 of the Treatment Period, subjects who qualified for enrollment were randomized in the order in which they were admitted to the research facility. On the same day, subjects began receiving study medication. Subsequent analyses included clinical and laboratory safety assessments and profiles of PK, PD, and lipid parameters. The safety and tolerability of LUM001 were evaluated by physical examination, ascertainment of adverse signs and symptoms, and clinical laboratory studies. Blood and urine samples were obtained for measurement of LUM001 plasma, whole blood, and urine concentrations for subsequent PK analyses. Efficacy responses included measuring FBA as a surrogate marker for the inhibition of intestinal bile acid transport. For the qAM dosing panels, LUM001 or placebo was administered each day of the treatment period (28 days) immediately prior to the morning meal at approximately 08:00 and after any necessary blood work was drawn.
Fecal samples were collected for all panels except the dose-titration panel, 2.5 (2) and 5 mg (2), on Days 9 through 14 and 23 through 28 (data shown in FIG. 6; *p<0.05; **p<0.01 compared to placebo). Twenty-four hour FBA excretions were quantified by Pharmacia for Days 9 through 14 and 23 through 28. Feces were collected in a 24-hour collection container beginning at 08:00 and ending 24 hours later. This procedure was followed on Days 9 through 14 and 23 through 28, with new collection containers issued for each 24-hour period. The weight of each 24-hour fecal collection was recorded on the CRFs. Specimens were stored in 24-hour containers, frozen at approximately −80° C. prior to analysis.
An aliquot for each 24-hour fecal sample collected on Days 23 through 28 was combined, homogenized, and analyzed for bile acid species concentrations by ANAPHARM. The fecal bile acid species evaluated include chenodeoxycholic acid, cholic acid, deoxycholic acid, and lithocholic acid.

serum bile acids = experiment: Serum bile acids, ascending multiple oral doses of LUM001 in healthy adults; assay type: in vivo, human; details: 28 days
Experimental: as §1, with “with placebo. […]” for “with placebo.”
On Day 1 of the Treatment Period, subjects who qualified for enrollment were randomized in the order in which they were admitted to the research facility. […] The safety and tolerability of LUM001 were evaluated by physical examination, ascertainment of adverse signs and symptoms, and clinical laboratory studies. […]
SBA were analyzed as part of the routine clinical analysis of the serum samples collected at each time point.

[2] = oral capsule 7.5 mg/kg free form, fasted
[3] = oral solution 7.5 mg/kg free form, fed

## CCCCC1(CCCC)CS(=O)(=O)c2ccc(N(C)C)cc2[C@@H](c2ccc(OCc3ccc(C[N+]45CCN(CC4)CC5)cc3)cc2)[C@H]1O [LUM001]
[1]; [2]
  Cmax: 4.24 ng/mL
  Tmax: 5 h
  AUC(0-t): 33.7 ng·h/mL
  bioavailability: < 0.1%
[1]; [3]
  Cmax: 1.28 ng/mL
  Tmax: 0.5 h
  AUC(0-t): 3.9 ng·h/mL
  BA (bioavailability): <0.1%
[1]; oral solution 1 mg/kg free form, fasted
  bioavailability: < 0.1%
[1]; oral solution 7.5 mg/kg free form, fasted
  BA (bioavailability): <0.1%
Fecal bile acids; 0.5 mg (n=16), Days 9-14
  Mean Daily Total Fecal Bile Acids Excretion: 266.8 μmole/24 hr
Fecal bile acids; 0.5 mg (n=16), Days 23-28
  Mean Daily Total Fecal Bile Acids Excretion: 294.9 μmole/24 hr
Fecal bile acids; 1.0 mg (n=8), Days 9-14
  Mean Daily Total Fecal Bile Acids Excretion: 642.7 μmole/24 hr
Fecal bile acids; 1.0 mg (n=8), Days 23-28
  Mean Daily Total Fecal Bile Acids Excretion: 780.3 μmole/24 hr
Fecal bile acids; 2.5 mg (n=8), Days 9-14
  Mean Daily Total Fecal Bile Acids Excretion: 478.0 μmole/24 hr
Fecal bile acids; 2.5 mg (n=8), Days 23-28
  Mean Daily Total Fecal Bile Acids Excretion: 590.7 μmole/24 hr
Fecal bile acids; 5 mg (n=8), Days 9-14
  Mean Daily Total Fecal Bile Acids Excretion: 1105.1 μmole/24 hr
Fecal bile acids; 5 mg (n=8), Days 23-28
  Mean Daily Total Fecal Bile Acids Excretion: 848.4 μmole/24 hr
Fecal bile acids; 5 mg qPM (n=15), Days 9-14
  Mean Daily Total Fecal Bile Acids Excretion: 496.9 μmole/24 hr
Fecal bile acids; 5 mg qPM (n=15), Days 23-28
  Mean Daily Total Fecal Bile Acids Excretion: 593.3 μmole/24 hr
Fecal bile acids; 10 mg (n=8), Days 9-14
  Mean Daily Total Fecal Bile Acids Excretion: 1237.0 μmole/24 hr
Fecal bile acids; 10 mg (n=8), Days 23-28
  Mean Daily Total Fecal Bile Acids Excretion: 1126.0 μmole/24 hr
Fecal bile acids; 20 mg (n=16), Days 9-14
  Mean Daily Total Fecal Bile Acids Excretion: 902.9 μmole/24 hr
Fecal bile acids; 20 mg (n=16), Days 23-28
  Mean Daily Total Fecal Bile Acids Excretion: 865.2 μmole/24 hr
Fecal bile acids; 60 mg (n=8), Days 9-14
  Mean Daily Total Fecal Bile Acids Excretion: 973.4 μmole/24 hr
Fecal bile acids; 60 mg (n=8), Days 23-28
  Mean Daily Total Fecal Bile Acids Excretion: 964.5 μmole/24 hr
Fecal bile acids; 100 mg (n=8), Days 9-14
  Mean Daily Total Fecal Bile Acids Excretion: 2405.7 μmole/24 hr
Fecal bile acids; 100 mg (n=8), Days 23-28
  Mean Daily Total Fecal Bile Acids Excretion: 1718.3 μmole/24 hr
Fecal bile acids; healthy adults, multiple oral doses, 28 days
  Fecal Bile Acids: significant increase in fecal bile acids
Serum bile acids
  Serum bile acids: significant reduction in serum bile acids

Source: patent US20140271734A1, “BILE ACID RECYCLING INHIBITORS FOR TREATMENT OF BARRETT'S ESOPHAGUS AND GASTROESOPHAGEAL REFLUX DISEASE” (LUMENA PHARMACEUTICALS, INC., priority 2013, published 2014)
